Measurements from ChEMBL document CHEMBL1201862, “PubChem BioAssay data set” (2004).
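Dose response: 5 concentrations. Exposure: 48 h. Format: 96-well plates. Endpoint: linear interpolation; highest concentration if not reached. The concentration for 50% growth inhibition is given as GI50.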 Activity calls are given as the source filed them. No stated cut-off is given here; in the data, active = GI50 up to about 1.1 µM and inactive = higher.

Experiments:
Assay in all cases: NCI anticancer screen, dose series, 48 h
[1] = tested on: HOP-92
[2] = tested on: HCT-15
[3] = tested on: SK-OV-3
[4] = tested on: XF498
[5] = tested on: EKVX
[6] = tested on: SNB-78
[7] = tested on: HCC 2998
[8] = tested on: NCI-H522
[9] = tested on: LOX IMVI
[10] = tested on: SW-620
[11] = tested on: DMS-114
[12] = tested on: IGROV-1
[13] = tested on: A549
[14] = tested on: SF-295
[15] = tested on: RXF 393
[16] = tested on: M19-MEL
[17] = tested on: HL-60
[18] = tested on: NCI-H226
[19] = tested on: SR

| Compound | GI50 [1] | GI50 [2] [µM] | GI50 [3] | GI50 [4] | GI50 [5] | GI50 [6] | GI50 [7] | GI50 [8] | GI50 [9] | GI50 [10] | GI50 [11] | GI50 [12] | GI50 [13] | GI50 [14] | GI50 [15] | GI50 [16] | GI50 [17] | GI50 [18] | GI50 [19] |
| --- | --- | --- | --- | --- | --- | --- | --- | --- | --- | --- | --- | --- | --- | --- | --- | --- | --- | --- | --- |
| CC1=NN(C(=O)c2ccc(Cl)cc2)C(=O)/C1=C/c1cccc([N+](=O)[O-])c1 | > 100 µM (inactive) | > 100 | > 100 µM (inactive) | > 100 µM (inactive) | > 100 µM (inactive) | > 100 µM (inactive) | > 100 µM (inactive) | > 100 µM (inactive) | > 100 µM (inactive) | > 100 µM (inactive) | > 100 µM (inactive) | > 100 µM (inactive) | > 100 µM (inactive) | > 100 µM (inactive) | > 100 µM (inactive) | > 100 µM (inactive) | > 100 µM (inactive) | – | – |
| O=[N+]([O-])c1ccc(Nc2cccc3c4cc[nH]c(-c5ccccc5)c-4nc23)c([N+](=O)[O-])c1 | > 100 µM (inactive) | > 100 | > 100 µM (inactive) | > 100 µM (inactive) | > 100 µM (inactive) | > 100 µM (inactive) | > 100 µM (inactive) | > 100 µM (inactive) | > 100 µM (inactive) | > 100 µM (inactive) | > 100 µM (inactive) | > 100 µM (inactive) | > 100 µM (inactive) | > 100 µM (inactive) | > 100 µM (inactive) | > 100 µM (inactive) | > 100 µM (inactive) | > 100 µM (inactive) | – |
| COc1nc(N)c(NC(C)=O)c(=O)n1C | 39.9 µM (inactive) | > 100 | – | > 100 µM (inactive) | > 100 µM (inactive) | > 100 µM (inactive) | > 100 µM (inactive) | – | > 100 µM (inactive) | > 100 µM (inactive) | > 100 µM (inactive) | > 100 µM (inactive) | > 100 µM (inactive) | > 100 µM (inactive) | > 100 µM (inactive) | – | > 100 µM (inactive) | 0.14 µM (active) | > 100 µM (inactive) |
| CC1(C)OC(C(N)=O)=C(C(N)=O)O1 | > 100 µM (inactive) | > 100 | > 100 µM (inactive) | > 100 µM (inactive) | > 100 µM (inactive) | – | > 100 µM (inactive) | > 100 µM (inactive) | > 100 µM (inactive) | > 100 µM (inactive) | > 100 µM (inactive) | > 100 µM (inactive) | > 100 µM (inactive) | > 100 µM (inactive) | > 100 µM (inactive) | > 100 µM (inactive) | > 100 µM (inactive) | > 100 µM (inactive) | 6.53 µM (inactive) |
| CCOC(=O)C(C)NC(=O)N(C)C12CC3CC(CC(C3)C1)C2 (stereo unspecified) | 20.7 µM (inactive) | 187 | 237 µM (inactive) | 192 µM (inactive) | 450 µM (inactive) | 277 µM (inactive) | 268 µM (inactive) | 135 µM (inactive) | 116 µM (inactive) | 218 µM (inactive) | 115 µM (inactive) | 286 µM (inactive) | 197 µM (inactive) | 203 µM (inactive) | 153 µM (inactive) | 177 µM (inactive) | > 96.8 µM (inactive) | 233 µM (inactive) | – |
| CC12CCC3C(CCC4(O)C=CCCC34C=O)C1(O)CC(O)C2c1ccc(=O)oc1 (stereo unspecified) | 0.105 µM (active) | 0.0658 | 0.109 µM (active) | 0.0873 µM (active) | 0.0564 µM (active) | 0.0593 µM (active) | 0.117 µM (active) | < 0.05 µM (active) | 0.0662 µM (active) | 0.0741 µM (active) | < 0.05 µM (active) | 0.0681 µM (active) | 0.0504 µM (active) | 0.0551 µM (active) | < 0.05 µM (active) | 0.0851 µM (active) | 0.0665 µM (active) | 0.148 µM (active) | – |
| CN(C)CCNc1c([N+](=O)[O-])cc2c3c(cccc13)C(=O)N(CCN(C)C)C2=O | 0.587 µM (active) | 1.7 | 1.76 µM (inactive) | 1.55 µM (inactive) | 2.15 µM (inactive) | 1.61 µM (inactive) | 1.53 µM (inactive) | 1.25 µM (inactive) | 1.08 µM (active) | 0.593 µM (active) | 1.27 µM (inactive) | 1.73 µM (inactive) | 1.84 µM (inactive) | 1.24 µM (inactive) | 1.42 µM (inactive) | 1.6 µM (inactive) | 1.68 µM (inactive) | > 100 µM (inactive) | – |
| COc1ccc(-c2cc(N3CCN(c4ccc(Cl)cc4)CC3)c(C#N)c(=O)o2)cc1 | > 100 µM (inactive) | 40.7 | – | 3.09 µM (inactive) | 11.4 µM (inactive) | 11.7 µM (inactive) | 91.8 µM (inactive) | – | 10.4 µM (inactive) | 40 µM (inactive) | 7.41 µM (inactive) | 10.9 µM (inactive) | 10.1 µM (inactive) | 4.28 µM (inactive) | 5.12 µM (inactive) | – | > 100 µM (inactive) | 2.52 µM (inactive) | > 100 µM (inactive) |
| COc1cc(/C=C(\C#N)C(N)=O)cc(Br)c1O | – | > 100 | > 100 µM (inactive) | 23.2 µM (inactive) | – | > 100 µM (inactive) | > 100 µM (inactive) | – | 29.7 µM (inactive) | > 100 µM (inactive) | – | > 100 µM (inactive) | > 100 µM (inactive) | > 100 µM (inactive) | > 100 µM (inactive) | > 100 µM (inactive) | – | > 100 µM (inactive) | – |
| COc1ccc(C(=O)C(C(=O)C(=O)NCCCNC(=O)C(=O)C(C(=O)c2ccc(OC)cc2)c2ccc(OC)cc2)c2ccc(OC)cc2)cc1 (stereo unspecified) | > 100 µM (inactive) | > 100 | > 100 µM (inactive) | > 100 µM (inactive) | > 100 µM (inactive) | > 100 µM (inactive) | > 100 µM (inactive) | > 100 µM (inactive) | > 100 µM (inactive) | > 100 µM (inactive) | > 100 µM (inactive) | > 100 µM (inactive) | > 100 µM (inactive) | > 100 µM (inactive) | – | – | > 100 µM (inactive) | > 100 µM (inactive) | > 100 µM (inactive) |
| Cc1ccc(/C=C/C(=O)c2ccc([N+](=O)[O-])cc2)cc1 | – | > 100 | > 100 µM (inactive) | > 100 µM (inactive) | > 100 µM (inactive) | > 100 µM (inactive) | > 100 µM (inactive) | 56.4 µM (inactive) | > 100 µM (inactive) | > 100 µM (inactive) | – | > 100 µM (inactive) | > 100 µM (inactive) | > 100 µM (inactive) | > 100 µM (inactive) | > 100 µM (inactive) | 90.6 µM (inactive) | > 100 µM (inactive) | 79.1 µM (inactive) |
| CCOC(=O)C1S/C(=N\c2ccc(C)c(C)c2)N=C1C (stereo unspecified) | > 100 µM (inactive) | > 100 | > 100 µM (inactive) | > 100 µM (inactive) | > 100 µM (inactive) | – | > 100 µM (inactive) | > 100 µM (inactive) | 75.2 µM (inactive) | > 100 µM (inactive) | > 100 µM (inactive) | > 100 µM (inactive) | > 100 µM (inactive) | > 100 µM (inactive) | – | > 100 µM (inactive) | 61 µM (inactive) | > 100 µM (inactive) | > 100 µM (inactive) |
| CC1(CO)C(O)CCC2(C)C1CCC1CC3CC12CCC3(O)CO (stereo unspecified) | 24.8 µM (inactive) | > 24.8 | > 100 µM (inactive) | 64.7 µM (inactive) | > 64.6 µM (inactive) | > 100 µM (inactive) | 12.1 µM (inactive) | > 28.2 µM (inactive) | 4.72 µM (inactive) | 9.75 µM (inactive) | 2.34 µM (inactive) | > 100 µM (inactive) | 2.71 µM (inactive) | 2.19 µM (inactive) | 20 µM (inactive) | 26.2 µM (inactive) | 0.433 µM (active) | 21.2 µM (inactive) | – |
| COC(=O)[C@]1(C)CCCC2(C)C1CC[C@H]1C=C(C)[C@H]3CCC12C3 (stereo partly specified) | > 100 µM (inactive) | > 100 | > 100 µM (inactive) | > 100 µM (inactive) | – | > 100 µM (inactive) | > 100 µM (inactive) | 45 µM (inactive) | 68.2 µM (inactive) | > 100 µM (inactive) | 86.9 µM (inactive) | > 100 µM (inactive) | > 100 µM (inactive) | > 100 µM (inactive) | 55.3 µM (inactive) | – | 86.1 µM (inactive) | > 100 µM (inactive) | > 100 µM (inactive) |
| CC(=O)N[C@@H]1C(O)CN2C(=O)C(=O)O[C@H](C(O)CO)[C@@H]12 (stereo partly specified) | > 100 µM (inactive) | – | > 100 µM (inactive) | > 100 µM (inactive) | > 100 µM (inactive) | > 100 µM (inactive) | > 100 µM (inactive) | > 100 µM (inactive) | > 100 µM (inactive) | > 100 µM (inactive) | > 100 µM (inactive) | > 100 µM (inactive) | > 100 µM (inactive) | > 100 µM (inactive) | > 100 µM (inactive) | > 100 µM (inactive) | > 100 µM (inactive) | – | – |
| CC1(C)S[C@@H]2[C@H](NC(=O)CCC[C@@H](N)C(=O)O)C(=O)N2[C@H]1C(=O)O [ADICILLIN] | > 50 µM (inactive) | > 50 | > 41 µM (inactive) | 24.1 µM (inactive) | > 50 µM (inactive) | > 50 µM (inactive) | > 50 µM (inactive) | > 50 µM (inactive) | > 50 µM (inactive) | > 31.6 µM (inactive) | – | > 50 µM (inactive) | > 50 µM (inactive) | > 50 µM (inactive) | > 50 µM (inactive) | > 50 µM (inactive) | > 50 µM (inactive) | > 50 µM (inactive) | – |
